Laboratory results as given in EP4467141A1, “PYRAZOLO-QUINOLINES AS SELECTIVE INHIBITORS OF GENOTOXIC STRESS-INDUCED IKK/NF- KB PATHWAYS FOR CANCER THERAPY” (Max-Delbrück-Centrum für Molekulare Medizin in der …, priority 2023, dated 2024).

Key:
Experiment in all cases: Kinase panel study
Format in all cases: biochemical
Details in all cases: read-out: Percentage of inhibition; for inhibition at 1 µM: 1000nM; for inhibition at 10 µM: 10000nM
[1] = target: T1, ABL1 Y253F (Homo sapiens, UniProt P00519, Y253F)
T1 construct: purchased Thermo Fisher Scientific
Outline: (§1)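 Kinase inhibition was determined by a contract provider in cell-free ZLyte or Adapta assays. Results are expressed as % inhibition at 10 or 1 µM.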

[2] = target: T2, AMPK A1/B1/G1 (Homo sapiens, UniProt Q13131)
T2 construct: purchased Thermo Fisher Scientific
Outline: as §1

[3] = target: T3, CDK1/cyclin B (Homo sapiens, UniProt P06493)
T3 construct: purchased Thermo Fisher Scientific
Outline: as §1

[4] = target: T4, CSK (Homo sapiens, UniProt P41240)
T4 construct: purchased Thermo Fisher Scientific
T4 sequence (P41240 whole entry): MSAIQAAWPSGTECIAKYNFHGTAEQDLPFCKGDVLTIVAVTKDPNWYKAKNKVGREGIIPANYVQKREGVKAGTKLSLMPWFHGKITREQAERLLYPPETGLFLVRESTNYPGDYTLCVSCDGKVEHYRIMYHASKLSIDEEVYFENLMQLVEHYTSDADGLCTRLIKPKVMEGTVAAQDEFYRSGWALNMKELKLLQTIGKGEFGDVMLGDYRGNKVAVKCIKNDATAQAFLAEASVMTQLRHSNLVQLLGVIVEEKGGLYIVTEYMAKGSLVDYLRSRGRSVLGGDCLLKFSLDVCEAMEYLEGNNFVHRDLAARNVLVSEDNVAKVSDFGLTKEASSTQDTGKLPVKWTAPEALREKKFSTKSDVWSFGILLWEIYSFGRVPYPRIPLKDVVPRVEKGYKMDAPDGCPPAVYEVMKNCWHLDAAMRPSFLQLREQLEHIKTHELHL
Outline: as §1

[5] = target: T5, EPHA5 (Homo sapiens, UniProt P54756)
T5 construct: purchased Thermo Fisher Scientific
T5 sequence (P54756 25-1037): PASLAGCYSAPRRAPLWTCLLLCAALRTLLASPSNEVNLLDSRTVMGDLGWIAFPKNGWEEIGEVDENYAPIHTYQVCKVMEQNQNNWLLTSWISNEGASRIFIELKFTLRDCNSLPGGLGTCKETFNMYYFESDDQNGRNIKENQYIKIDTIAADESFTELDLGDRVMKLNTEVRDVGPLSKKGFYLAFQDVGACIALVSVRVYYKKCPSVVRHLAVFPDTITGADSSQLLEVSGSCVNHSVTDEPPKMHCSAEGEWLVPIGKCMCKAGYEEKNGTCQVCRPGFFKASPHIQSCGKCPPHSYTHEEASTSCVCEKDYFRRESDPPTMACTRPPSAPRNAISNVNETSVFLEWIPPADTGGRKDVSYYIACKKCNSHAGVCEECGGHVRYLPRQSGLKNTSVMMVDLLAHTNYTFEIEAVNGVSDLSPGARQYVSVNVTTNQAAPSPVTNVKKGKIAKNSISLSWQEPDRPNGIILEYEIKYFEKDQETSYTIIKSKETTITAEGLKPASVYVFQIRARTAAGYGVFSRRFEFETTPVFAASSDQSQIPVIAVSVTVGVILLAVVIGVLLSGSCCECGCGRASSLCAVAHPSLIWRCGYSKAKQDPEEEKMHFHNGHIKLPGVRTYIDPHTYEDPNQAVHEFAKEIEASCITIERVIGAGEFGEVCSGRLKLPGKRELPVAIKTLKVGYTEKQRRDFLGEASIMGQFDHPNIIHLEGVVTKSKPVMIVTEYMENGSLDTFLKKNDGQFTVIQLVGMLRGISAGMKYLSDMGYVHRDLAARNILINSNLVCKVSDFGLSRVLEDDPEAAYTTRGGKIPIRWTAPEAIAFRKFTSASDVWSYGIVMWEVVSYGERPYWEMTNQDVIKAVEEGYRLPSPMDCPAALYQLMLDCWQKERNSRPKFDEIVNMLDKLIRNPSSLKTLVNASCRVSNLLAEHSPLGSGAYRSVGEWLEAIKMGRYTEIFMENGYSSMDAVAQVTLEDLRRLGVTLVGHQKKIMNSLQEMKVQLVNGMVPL
Outline: as §1

[6] = target: T6, FRK (PTK5) (Homo sapiens, UniProt P42685)
T6 construct: purchased Thermo Fisher Scientific
Outline: as §1

[7] = target: T7, LRRK2 G2019S FL (Homo sapiens, UniProt Q5S007, G2019S)
T7 construct: LRRK2 G2019S FL; purchased Thermo Fisher Scientific
T7 sequence (Q5S007 whole entry G2019S): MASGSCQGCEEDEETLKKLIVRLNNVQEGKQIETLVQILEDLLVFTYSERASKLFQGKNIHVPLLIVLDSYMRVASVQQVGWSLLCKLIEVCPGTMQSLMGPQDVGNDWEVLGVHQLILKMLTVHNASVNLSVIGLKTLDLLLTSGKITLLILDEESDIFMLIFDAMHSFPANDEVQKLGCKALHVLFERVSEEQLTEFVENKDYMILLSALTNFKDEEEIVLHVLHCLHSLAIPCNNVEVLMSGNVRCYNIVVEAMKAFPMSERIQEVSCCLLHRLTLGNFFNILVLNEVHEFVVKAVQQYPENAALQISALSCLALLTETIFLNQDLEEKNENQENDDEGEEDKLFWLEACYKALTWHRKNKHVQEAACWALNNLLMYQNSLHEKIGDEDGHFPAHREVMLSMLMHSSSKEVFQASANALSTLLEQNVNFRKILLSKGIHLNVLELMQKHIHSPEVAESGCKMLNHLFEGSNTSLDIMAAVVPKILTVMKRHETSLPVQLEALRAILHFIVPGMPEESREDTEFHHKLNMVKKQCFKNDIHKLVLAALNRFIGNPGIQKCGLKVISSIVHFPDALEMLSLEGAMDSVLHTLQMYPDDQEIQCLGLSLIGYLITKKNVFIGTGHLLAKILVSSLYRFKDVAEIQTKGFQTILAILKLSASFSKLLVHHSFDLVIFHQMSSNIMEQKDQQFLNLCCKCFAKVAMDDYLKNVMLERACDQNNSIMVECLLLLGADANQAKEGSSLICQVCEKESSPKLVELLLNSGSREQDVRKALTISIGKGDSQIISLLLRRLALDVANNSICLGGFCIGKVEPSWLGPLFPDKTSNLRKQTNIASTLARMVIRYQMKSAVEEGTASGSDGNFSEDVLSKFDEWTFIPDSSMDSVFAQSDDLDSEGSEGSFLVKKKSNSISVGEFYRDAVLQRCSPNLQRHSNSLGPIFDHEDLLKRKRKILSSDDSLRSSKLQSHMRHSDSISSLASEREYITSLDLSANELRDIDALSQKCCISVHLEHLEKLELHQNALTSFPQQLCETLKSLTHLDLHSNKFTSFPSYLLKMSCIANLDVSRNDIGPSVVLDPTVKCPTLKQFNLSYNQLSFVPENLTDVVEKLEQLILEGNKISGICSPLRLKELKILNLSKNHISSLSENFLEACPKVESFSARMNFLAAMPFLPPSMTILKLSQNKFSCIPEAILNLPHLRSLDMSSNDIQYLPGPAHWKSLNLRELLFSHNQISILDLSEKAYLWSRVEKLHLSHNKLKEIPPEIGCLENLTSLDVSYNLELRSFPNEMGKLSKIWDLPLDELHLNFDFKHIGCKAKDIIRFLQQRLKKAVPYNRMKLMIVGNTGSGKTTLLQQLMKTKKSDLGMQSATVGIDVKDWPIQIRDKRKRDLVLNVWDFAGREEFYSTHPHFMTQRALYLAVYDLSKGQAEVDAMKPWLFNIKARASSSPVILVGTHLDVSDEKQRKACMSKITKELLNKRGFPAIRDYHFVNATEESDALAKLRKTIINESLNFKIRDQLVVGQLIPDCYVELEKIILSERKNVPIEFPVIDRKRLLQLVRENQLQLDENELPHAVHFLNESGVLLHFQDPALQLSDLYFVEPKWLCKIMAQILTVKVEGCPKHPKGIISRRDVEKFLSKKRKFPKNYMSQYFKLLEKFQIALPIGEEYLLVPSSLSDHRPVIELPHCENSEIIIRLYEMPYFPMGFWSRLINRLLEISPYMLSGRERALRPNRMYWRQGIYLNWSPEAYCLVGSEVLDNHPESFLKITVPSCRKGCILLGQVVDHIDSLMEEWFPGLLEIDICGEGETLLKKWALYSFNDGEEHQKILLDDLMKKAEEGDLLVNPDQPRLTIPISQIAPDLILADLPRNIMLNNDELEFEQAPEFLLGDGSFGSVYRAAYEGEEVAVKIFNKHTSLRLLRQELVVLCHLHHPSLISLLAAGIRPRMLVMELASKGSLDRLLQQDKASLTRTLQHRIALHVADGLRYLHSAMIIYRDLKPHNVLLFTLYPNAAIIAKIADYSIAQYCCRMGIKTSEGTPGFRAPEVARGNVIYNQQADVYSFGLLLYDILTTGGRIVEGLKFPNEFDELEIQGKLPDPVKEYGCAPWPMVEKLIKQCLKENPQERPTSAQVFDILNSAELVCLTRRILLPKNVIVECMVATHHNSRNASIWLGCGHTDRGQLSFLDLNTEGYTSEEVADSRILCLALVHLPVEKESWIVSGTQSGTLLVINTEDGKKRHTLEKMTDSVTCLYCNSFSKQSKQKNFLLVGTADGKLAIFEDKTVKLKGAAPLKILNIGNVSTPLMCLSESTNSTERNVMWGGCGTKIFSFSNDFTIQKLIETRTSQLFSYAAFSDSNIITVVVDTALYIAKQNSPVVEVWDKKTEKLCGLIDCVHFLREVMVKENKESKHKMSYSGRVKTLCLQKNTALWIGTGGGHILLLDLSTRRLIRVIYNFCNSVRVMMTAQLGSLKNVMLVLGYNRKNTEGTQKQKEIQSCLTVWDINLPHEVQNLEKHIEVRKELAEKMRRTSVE
Outline: as §1

[8] = target: T8, MAPK13 (p38 delta) (Homo sapiens, UniProt O15264)
T8 construct: purchased Thermo Fisher Scientific
T8 sequence (O15264 1-365): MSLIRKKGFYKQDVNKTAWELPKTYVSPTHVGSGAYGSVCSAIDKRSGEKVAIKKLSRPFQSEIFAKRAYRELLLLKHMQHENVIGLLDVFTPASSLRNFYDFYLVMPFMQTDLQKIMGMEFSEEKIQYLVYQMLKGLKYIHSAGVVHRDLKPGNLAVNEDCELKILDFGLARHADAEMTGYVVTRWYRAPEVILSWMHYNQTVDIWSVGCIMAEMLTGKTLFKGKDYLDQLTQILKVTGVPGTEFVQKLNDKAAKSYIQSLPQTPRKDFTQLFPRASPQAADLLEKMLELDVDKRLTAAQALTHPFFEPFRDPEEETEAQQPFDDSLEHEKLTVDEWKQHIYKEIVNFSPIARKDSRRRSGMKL
Outline: as §1

[9] = target: T9, PIM1 (Homo sapiens, UniProt P11309)
T9 construct: purchased Thermo Fisher Scientific
T9 sequence (P11309 whole entry): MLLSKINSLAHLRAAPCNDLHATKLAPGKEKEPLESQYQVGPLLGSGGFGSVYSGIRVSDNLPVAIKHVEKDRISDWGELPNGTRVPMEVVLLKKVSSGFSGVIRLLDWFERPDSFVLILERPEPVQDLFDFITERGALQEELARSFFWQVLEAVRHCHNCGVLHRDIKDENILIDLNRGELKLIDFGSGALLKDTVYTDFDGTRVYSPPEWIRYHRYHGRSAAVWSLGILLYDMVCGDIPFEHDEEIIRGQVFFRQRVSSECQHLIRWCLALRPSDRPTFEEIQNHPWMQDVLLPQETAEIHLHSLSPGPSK
Outline: as §1

[10] = target: T10, PKN1 (PRK1) (Homo sapiens, UniProt Q16512)
T10 construct: purchased Thermo Fisher Scientific
Outline: as §1

[11] = target: T11, PRKG1 (Homo sapiens, UniProt Q13976)
T11 construct: purchased Thermo Fisher Scientific
T11 sequence (Q13976 1-671): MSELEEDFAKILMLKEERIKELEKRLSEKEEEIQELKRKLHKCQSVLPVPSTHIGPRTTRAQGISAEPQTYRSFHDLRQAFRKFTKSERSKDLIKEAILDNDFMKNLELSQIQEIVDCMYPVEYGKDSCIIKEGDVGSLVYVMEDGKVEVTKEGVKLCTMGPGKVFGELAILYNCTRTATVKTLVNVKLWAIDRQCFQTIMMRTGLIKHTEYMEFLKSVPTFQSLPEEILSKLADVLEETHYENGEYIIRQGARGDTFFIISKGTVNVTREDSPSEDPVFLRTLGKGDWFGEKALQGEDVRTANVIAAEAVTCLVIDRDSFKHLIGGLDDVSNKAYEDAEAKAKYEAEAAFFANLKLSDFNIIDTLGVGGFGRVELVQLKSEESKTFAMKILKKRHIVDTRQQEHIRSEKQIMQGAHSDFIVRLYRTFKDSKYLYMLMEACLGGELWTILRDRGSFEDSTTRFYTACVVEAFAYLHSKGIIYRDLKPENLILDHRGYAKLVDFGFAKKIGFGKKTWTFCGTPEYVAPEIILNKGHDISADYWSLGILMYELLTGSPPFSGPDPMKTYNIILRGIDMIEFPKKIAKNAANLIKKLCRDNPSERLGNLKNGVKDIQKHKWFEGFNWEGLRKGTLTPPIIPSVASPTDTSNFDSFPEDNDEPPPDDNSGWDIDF
Outline: as §1

[12] = target: T12, RPS6KA2 (RSK3) (Homo sapiens, UniProt Q15349)
T12 construct: purchased Thermo Fisher Scientific
T12 sequence (Q15349 whole entry): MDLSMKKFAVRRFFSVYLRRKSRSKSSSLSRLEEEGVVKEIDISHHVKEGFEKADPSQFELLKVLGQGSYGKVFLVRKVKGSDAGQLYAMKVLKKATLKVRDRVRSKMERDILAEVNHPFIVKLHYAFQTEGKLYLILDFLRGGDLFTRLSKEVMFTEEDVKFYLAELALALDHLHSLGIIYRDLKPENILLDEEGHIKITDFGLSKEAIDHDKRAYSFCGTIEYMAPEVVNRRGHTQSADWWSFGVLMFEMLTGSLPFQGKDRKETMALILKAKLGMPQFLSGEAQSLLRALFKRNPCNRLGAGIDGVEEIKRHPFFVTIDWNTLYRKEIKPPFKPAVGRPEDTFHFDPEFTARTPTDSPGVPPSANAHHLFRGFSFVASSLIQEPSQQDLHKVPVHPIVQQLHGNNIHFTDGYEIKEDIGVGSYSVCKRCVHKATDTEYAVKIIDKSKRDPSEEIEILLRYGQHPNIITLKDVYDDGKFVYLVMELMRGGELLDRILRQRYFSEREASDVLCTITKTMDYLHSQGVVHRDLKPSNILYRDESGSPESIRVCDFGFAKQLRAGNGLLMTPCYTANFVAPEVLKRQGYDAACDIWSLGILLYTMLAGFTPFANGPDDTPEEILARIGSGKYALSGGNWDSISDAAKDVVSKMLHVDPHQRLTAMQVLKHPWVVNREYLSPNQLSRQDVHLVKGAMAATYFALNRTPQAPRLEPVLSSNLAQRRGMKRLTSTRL
Outline: as §1

Row | Structure (SMILES) | inhibition at 1 µM [1] [%] | inhibition at 10 µM [1] [%] | inhibition at 1 µM [2] [%] | inhibition at 10 µM [2] [%] | inhibition at 1 µM [3] [%] | inhibition at 10 µM [3] [%] | inhibition at 1 µM [4] [%] | inhibition at 10 µM [4] [%] | inhibition at 1 µM [5] [%] | inhibition at 10 µM [5] [%] | inhibition at 1 µM [6] [%] | inhibition at 10 µM [6] [%] | inhibition at 1 µM [7] [%] | inhibition at 10 µM [7] [%] | inhibition at 1 µM [8] [%] | inhibition at 10 µM [8] [%] | inhibition at 1 µM [9] [%] | inhibition at 10 µM [9] [%] | inhibition at 1 µM [10] [%] | inhibition at 10 µM [10] [%] | also measured
1 | COc1ccc2c(c1OC)c(=O)n1c3ccc(O)cc3c3ccnc2c31 [MW01, 5-Hydroxy-10,11-dimethoxy-9H-benzo[c]indolo[3,2,1-ij][1,5]naphthyridin-9-one] | 9 | 30 | 4 | 14 | 20 | 46 | 11 | 18 | -4 | 7 | 15 | 22 | 87 | 90 | 13 | 11 | 11 | 24 | 9 | 16 | inhibition at 1 µM [11]: 27%; inhibition at 10 µM [11]: 59%; inhibition at 1 µM [12]: 6%; inhibition at 10 µM [12]: 11%
2 | COc1ccc2cc3c(N)nn(C(=O)c4cccc(N(C)C)c4)c3nc2c1 [MW05, (3-Amino-7-methoxypyrazolo[3,4-b]quinolin-1-yl)-[3-(dimethylamino)phenyl]methanone] | -2 | 7 | 6 | -3 | 19 | 57 | 9 | 13 | -8 | -16 | 9 | 6 | -1 | 11 | 8 | 9 | 8 | -9 | 15 | 4 | inhibition at 1 µM [11]: 5%; inhibition at 10 µM [11]: -11%; inhibition at 1 µM [12]: 5%; inhibition at 10 µM [12]: 6%
